Blank lines part the entries; values can stand above or below the compound they belong to.
Assays:
[1] = system: calvaria (PTH enhanced bone); test: Inhibitory effect on bone absorption (calcium liberation from PTH enhanced cultured calvaria); assay type: cell-based, newborn dd mouse; conditions: mouse calvaria culture, PTH 1 x 10^-8M, 96 hours, calcium in the culture; test compound 3 x 10^-6M, 1 x 10^-5M, 3 x 10^-5M
Experimental: Test Example 1: Inhibitory effect on bone absorption
The calvaria was excised from a newborn dd mouse (5 to 6 days old) under sterile conditions. The calvaria was washed with a modified Dulbecco phosphate buffer physiological saline solution containing neither calcium nor magnesium (a product of Gibco Oriental), and divided into two parts along the center suture. A half of the calvaria was cultivated in a modified Dulbecco Eagle medium (1.5 ml) (a product of Gibco Oriental) containing 2.5% fetal calf serum and 15% equine serum which had been inactivated by heating at 56°C for 20 minutes. The test compound was dissolved in dimethyl sulfoxide and 10 µl of the resulting solution was added to the culture medium to give the final concentrations of 3 x 10^-6M, 1 x 10^-5M, and 3 x 10^-5M. PTH (parathyroid hormone) was dissolved in a 0.15 M saline solution (pH 3) and 3 µl of the resulting solution was added to the culture medium to give the final concentration of 1 x 10^-8M. The culturing was carried out under the condition of 95% air and 5% carbon dioxide and at a temperature of 37°C for 96 hours. At 48 hours after the start of the culturing, the culture medium was renewed and the test compound and PTH treated as defined above were added thereto. For examining the effect of the test compound on calcium liberation (bone absorption) from the PTH enhanced bone, a control group, a group using PTH (1 x 10^-8M), and a group using both the test compound (3 x 10^-6M, 1 x 10^-5M, 3 x 10^-5M) and PTH were prepared. The amount of the bone absorption was determined by measuring the amount of calcium accumulated in the culture as collected after 96 hours of culturing. The total calcium concentration in the culture was measured with Calcium C Test Wako. The inhibition rate was calculated using the following equation and the result was shown in terms of 50% inhibitory concentration (IC50). Inhibition of bone absorption from PTH enhanced bone Inhibition rate (%) = [(CP - CD )/(CP - C0 )] x 100 [formula] • C0 : The total calcium concentration in the culture containing neither the test compound nor PTH. • CP : The total calcium concentration in the culture treated with only PTH. • CD : The total calcium concentration in the culture treated with both the test compound and PTH.

ovariectomized rats = test: Inhibitory effect on the increase of urinary hydroxyproline excretion by ovariectomy; assay type: in vivo, female SD strain rats; conditions: 10 mg/kg orally once a day for two weeks, hydroxyproline/creatinine molar ratio in 24 hour urine
Experimental: The inhibitory effect of the compounds of the present application on bone resorption was also determined by their inhibitory effect on the excretion of urinary hydroxyproline which is elevated by ovariectomy of the animals tested, according to the report of Kalu et al. [Bone and Mineral., 14, 175 (1991)].
Test Example 2: Inhibitory effect on the increase of urinary hydroxyproline excretion by ovariectomy
12-weeks-old female SD strain rats (Japan Clea Co., Ltd.) were acclimated for 1 week during which they were given tap water and a standard diet (F2; Funabashi Farmas) ad libitum. The experiment was carried out using the rats weighing 270-310 g. After the animals were subjected to sham operation or bilateral ovariectomy, they were allowed free access to water passed through ion exchange resin instead of tap water, and were housed in individual cages. The test compound (10 mg/kg) was suspended in 0.3% Tween, and the obtained suspension was orally administered to the ovariectomized rats once a day for two weeks starting from the day following ovariectomy (0.5 ml/100 g body weight). 0.3% Tween was similarly administered to sham-operated rats and ovariectomized control rats. After the final administration, the rats were placed in individual metabolic cages and fasted during 24 hours, and urine was collected. The volume of the collected urine was measured and the urine was centrifuged at 3,000 rpm for 15 min at 4°C. The concentration of hydroxyproline in the supernatant was measured by the method of Ikeda et al. [Ann. Rep. Tokyo Metr. Res. Lab. P. H., 36, 277-282 (1985)] and the concentration of creatinine in the supernatant was measured with creatinine test WAKO (Wako Pure Chem.) The amount of urinary hydroxyproline excretion was expressed by the molar ratio of the amount of hydroxyproline to the amount of creatinine. The rate of inhibition on increase of the amount of urinary hydroxyproline excretion in ovariectomized rats treated with the test compound compared to that of the control group was calculated using the following equation. […]

Structure (SMILES): O=S(=O)(c1[nH]c2ccccc2c1C(c1ccc(O)cc1)c1ccc(O)cc1)N1CCN(c2ccccc2Cl)CC1 [Compound 14, 3-[Bis(4-hydroxyphenyl)methyl]-2-[4-(2-chlorophenyl)piperazinylsulfonyl]indole]
IC50 [1]: 14.1 µM

Structure (SMILES): O=S(=O)(c1c(C(c2ccc(O)cc2)c2ccc(O)cc2)c2ccccc2n1CCN1CCOCC1)N1CCN(c2ccccc2Cl)CC1 [Compound 16, 3-[Bis(4-hydroxyphenyl)methyl]-2-[4-(2-chlorophenyl)piperazinylsulfonyl]-1-(2-morpholinoethyl)indole]
Inhibition rate of increase of the amount of urinary hydroxyproline excretion (ovariectomized rats): 32%

The next lines start with results.

IC50 [1]: 13.7 µM
Structure (SMILES): CN(C)CCn1c(S(=O)(=O)N2CCCCC2)c(C(c2ccc(O)cc2)c2ccc(O)cc2)c2ccccc21 [Compound 17, 3-[Bis(4-hydroxyphenyl)methyl]-1-(2-dimethylaminoethyl)-2-(piperidinosulfonyl)indole]

IC50 [1]: 13.3 µM
Structure (SMILES): CCN(CC)S(=O)(=O)c1c(C(c2ccc(O)cc2)c2ccc(O)cc2)c2ccccc2n1CCN(C)C [Compound 18, N,N-Diethyl-3-[bis(4-hydroxyphenyl)methyl]-1-(2-dimethylaminoethyl)indole-2-sulfonamide]
Inhibition rate of increase of the amount of urinary hydroxyproline excretion (ovariectomized rats): 22%

IC50 [1]: 13.7 µM
Structure (SMILES): CN(C)CCn1c(S(=O)(=O)N2CCCCC2)c(C(c2ccccc2)c2ccccc2)c2ccccc21 [Compound 24, 1-(2-Dimethylaminoethyl)-3-(diphenylmethyl)-2-(piperidinosulfonyl)indole]
Inhibition rate of increase of the amount of urinary hydroxyproline excretion (ovariectomized rats): 100%

— EP0782987A1, “INDOLE DERIVATIVES” (KYOWA HAKKO KOGYO CO., LTD., priority 1995, dated 1997)
